Results reported in publication PMC1968759, “Biological effects of stable overexpression of aromatase in human hormone-dependent breast cancer cells” (British Journal of Cancer, 1994).

Tests used:
aromatase = target: T1, aromatase (Homo sapiens, UniProt P11511); assay: cell-based
T1 construct: gene CYP19A1; human placental aromatase cDNA (nucleotides 16-1539) stably expressed in MCF-7 cells (clone Arom. 1)
T1 sequence (P11511 1-503): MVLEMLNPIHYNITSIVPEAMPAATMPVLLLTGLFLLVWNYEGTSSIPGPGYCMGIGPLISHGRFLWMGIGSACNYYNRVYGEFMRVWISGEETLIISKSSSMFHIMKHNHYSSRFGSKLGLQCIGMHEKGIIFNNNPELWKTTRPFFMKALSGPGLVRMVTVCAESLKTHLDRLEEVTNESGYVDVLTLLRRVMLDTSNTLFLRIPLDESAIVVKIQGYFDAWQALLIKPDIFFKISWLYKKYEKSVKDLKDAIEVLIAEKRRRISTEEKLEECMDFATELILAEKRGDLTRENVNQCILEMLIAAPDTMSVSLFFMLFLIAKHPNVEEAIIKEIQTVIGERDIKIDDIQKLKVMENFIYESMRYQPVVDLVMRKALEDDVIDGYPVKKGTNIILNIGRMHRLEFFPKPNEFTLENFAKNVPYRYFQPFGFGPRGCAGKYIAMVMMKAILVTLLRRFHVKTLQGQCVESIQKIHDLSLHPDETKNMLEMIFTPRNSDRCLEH

[1] = substrate: C[C@]12CCC(=O)C=C1CC[C@@H]1[C@@H]2CC[C@]2(C)C(=O)CC[C@@H]12; assay: cells, lysate or membranes

C[C@]12CCC(=O)C(O)=C1CC[C@@H]1[C@@H]2CC[C@]2(C)C(=O)CC[C@@H]12 [4-hydroxyandrostenedione]
IC50 (aromatase): 70 nM

B1: aromatase (Homo sapiens) (protein)
chain: T1 sequence (P11511 1-503)
Km [1]: 0.07 µM
